We go through four compounds from US4009273A, “Substituted 10,11-dihydro-5,10-imino-[5H] dibenzo (a,d)-cycloheptene” (priority 1972, dated 1977).

For one series, the system named is DOPA. Briefly: Potentialization of DOPA. Type of series: in vivo, mice (male). The conditions noted are these: 1 h before 50 mg/kg DOPA. On the procedure: In this test, DOPA [racemic β-(3,4-dihydroxyphenyl)-alanine] was administered to mice pretreated with 1-isonicotinoyl-2-isopropyl-hydrazine18 hours before the test which product caused the following symptoms: hypertonicity, agitation, crying, aggressiveness, salivation and exophthalmia. The administration of an antidepressant one hour before the DOPA injection potentializes the intensity of the effects.
Male mice weighing between 18 to 22 g received intraperitoneally 50 mg/kg of 1-isonicotinoyl-2-isopropyl-hydrazine and 18 hours later the test product intraperitoneally in aqueous solution in increasing doses and 1 hour later received an intraperitoneal injection of 50 mg/kg of DOPA. The different effects were evaluated 15 and 30 minutes after the DOPA injection and each symptom was evaluated for each animal on a scale from 0 to 3 and the evaluations for each dose was totaled. The totals are reported in Table III as a percent of the total of control animals.

The test system of a further series is amytal sleeping time. In words: Potentialization of sleeping time (amytal). Type of series: in vivo, mice (female). The conditions noted are these: 1 h before 80 mg/kg amytal i.v. On the procedure:
The potentialization of sleeping time was determined with a test using amytal [5-ethyl-5-isoamyl-barbituric acid] in which groups of female mice weighing between 18 and 22 g were kept at 25° C for the duration of the test. The test products were administered intraperitoneally at different doses one hour before intraveinous injection of 80 mg/kg of amytal and the sleeping time was noted which is the time while the reflux of straightening in the mice was negative.

Another series can be described thus: Acute toxicity. The conditions noted are these: mouse, in vivo, ip, Swiss mice, observed for a week. On the procedure:
The acute toxicity was determined on groups of Swiss mice weighing 18 to 22 g and the test products were administered intraperitoneally in increasing doses and the animals were kept under observation for a week.

Series [1] relates to pentamethylenetetrazol convulsions. In words: Anticonvulsant effect (pentamethylenetetrazol perfusion). It counts as in vivo, mice (female). The conditions noted are these: 1 h before perfusion. On the procedure: The anticonvulsant activity of the compounds was determined on groups of 10 female mice with intraperitoneal administration of the test compounds in acid solution at different doses and the control group received only the solvent. One hour after the injection, the mice were perfused with a solution of pentamethylenetetrazol in physiological serum at a concentration of 3 mg/ml. The perfusion was intraveinous at a rate of 1 ml per minute and in the course of the perfusion, the progress of introxication was characterized by the following 3 criteria:
a. Threshold of convulsant effect (myoclonia of the ears)
b. Crisis of clonic convulsions
c. Tonic convulsion with apnea and generally followed by death.

The test system of the next series is amphetamine deaths. In words: Amphetamine toxicity in mice. It counts as in vivo, mice (female). The conditions noted are these: mortality at 4 h. Here is the method:
The test was effected on group of 10 female mice weighing between 18 and 22 g kept at 27° C for the duration of the test. The test products were intraperitoneally administered in different doses in a volume of 0.01 ml /g of mouse. One hour later, the mice received an injection of 15 mg/kg of a solution of 1.5 mg of amphetamine per ml of physiological serum. The mortality 4 hours after the amphetamine injection was determined and the results were expressed as a ratio of number of dead animals to number of starting animals.

Series [2] relates to reserpine ptosis of the eyelid. In words: Antidepressant activity: antagonism of reserpine eyelid ptosis. Type of series: in vivo, rats. The conditions noted are these: 1 h before 1 mg/kg reserpine. On the procedure: The antidepressant activity was determined by antagonism exercised by the compounds against the depressant activity of reserpine and this effect was determined by ptosis of the eyelid test codified by Rubin [J. Pharm. Exp. Ther., Vol. 120 (1957), p. 125]. The eyelid ptosis test is used to make a quantitative evaluation of the condition of the animal, but the antagonism exercised equally against the neuro depressive symptoms of reserpine; immobility, adynamia, hypothermia, myosis, etc. The reading was effected every hour for 6 hours after intraperitoneal injection of 1 mg/kg of reserpine to groups of rats who had one hour previously received intraperitoneally a variable dose of the test compounds. The ptosis provoked by the reserpine injection was diminished by the previous injection of the test compounds, all the more so at the elevated doses. The results were expressed as a percentage of protection compared to controls which received only reserpine and are reported in Table IV.

A word on the LD50: it is the dose at which mortality reaches 50%. A lower LD50 goes with a more toxic substance. On to `CC(=O)CN1C2Cc3ccccc3C1c1ccccc12` (stereo not drawn) [Example 7, 12-acetonyl-10,11-dihydro-5,10-imino-[5H]-dibenzo (a,d) cycloheptene dl], for which the “total symptom score as percent of the total of control animals” value (“total symptom score as percent” below) came to 114% with DOPA (1 mg/Kg i.p.), 135% in the series on DOPA (2 mg/Kg i.p.), 138% in the series on DOPA (5 mg/Kg i.p.) and 173% with DOPA (10 mg/Kg i.p.). In addition, the average sleeping time is 31.3 min in the series with amytal sleeping time (5 mg/Kg i.p.), 51.2 min in the series on amytal sleeping time (10 mg/Kg i.p.), 82.3 min with amytal sleeping time (20 mg/Kg i.p.) and 107.5 min with amytal sleeping time (50 mg/Kg i.p.). In the series “Acute toxicity”, this compound displayed an LD50 at 168 h of 350 mg/kg. In addition, the “Dose of pentamethylenetetrazol, Clonic Crisis” value in series [1] (0.5 mg/Kg i.p.) worked out at 53.3 mg/kg; in series [1] (1 mg/Kg i.p.), 52.7 mg/kg; in series [1] (2 mg/Kg i.p.) it was 62.6 mg/kg; in series [1] (5 mg/Kg i.p.) it was 112.5 mg/kg. In addition, the “Dose of pentamethylenetetrazol, Myoclonia” value in series [1] (0.5 mg/Kg i.p.) was determined as 48.6 mg/kg; in series [1] (1 mg/Kg i.p.), 47.7 mg/kg; in series [1] (2 mg/Kg i.p.), 57.7 mg/kg; in series [1] (5 mg/Kg i.p.), 107.4 mg/kg. Also, the “Dose of pentamethylenetetrazol, Tonic Crisis” value in series [1] (0.5 mg/Kg i.p.) turned out to be 119.2 mg/kg; in series [1] (1 mg/Kg i.p.), 172.5 mg/kg; in series [1] (2 mg/Kg i.p.), 172.5 mg/kg; in series [1] (5 mg/Kg i.p.), 238.9 mg/kg. The “ratio of number of dead animals to number of starting animals” value with amphetamine deaths (5 mg/Kg i.p., 1 h before 15 mg/kg amphetamine) is listed as 2/10; with amphetamine deaths (10 mg/Kg i.p., 1 h before 15 mg/kg amphetamine) it was 0/10; with amphetamine deaths (20 mg/Kg i.p., 1 h before 15 mg/kg amphetamine) it was 0/10; with amphetamine deaths (head prints only "mg/Kg" (dose figure missing), i.p.), 0/10.

For `NCCN1C2Cc3ccccc3C1c1ccccc12` (stereo not drawn) [Example 30, 12-(2'-aminoethyl)-10,11-dihydro-5,10-imino-[5H]-dibenzo (a,d) cycloheptene dl], the figures for the “total symptom score as percent” value with DOPA (10 mg/Kg i.p.) and in the series on DOPA (20 mg/Kg i.p.) were 113% and 150%, respectively. In addition, the average sleeping time with amytal sleeping time (5 mg/Kg i.p.) turned out to be 46.3 min; in the series with amytal sleeping time (10 mg/Kg i.p.) it was 38.1 min; in the series with amytal sleeping time (20 mg/Kg i.p.) it was 64.1 min; in the series with amytal sleeping time (50 mg/Kg i.p.), 89.0 min. In “Acute toxicity”, the LD50 at 168 h is approximately 150 mg/kg. Moreover, the “% Protection” value in series [2] (2 mg/Kg i.p.) was 18%; in series [2] (10 mg/Kg i.p.), 38%; in series [2] (20 mg/Kg i.p.), 69%; in series [2] (50 mg/Kg i.p.), 74%.

In the series “Acute toxicity”, `CNCCN1C2Cc3ccccc3C1c1ccccc12` (stereo not drawn) [Example 28, 12-(2'-methylaminoethyl)-10,11-dihydro-5,10-imino-[5H]-dibenzo (a,d) cycloheptene dl] registered an LD50 at 168 h of approximately 150 mg/kg. Moreover, the “% Protection” value in series [2] (2 mg/Kg i.p.) was 10%; in series [2] (10 mg/Kg i.p.), 43%; in series [2] (20 mg/Kg i.p.), 60%; in series [2] (50 mg/Kg i.p.), 84%.

Regarding `CN(C)CCN1C2Cc3ccccc3C1c1ccccc12` (stereo not drawn) [Example 29, 12-(2'-dimethylaminoethyl)-10,11-dihydro-5,10-imino-[5H]-dibenzo (a,d) cycloheptene dl], the “total symptom score as percent” value with DOPA (10 mg/Kg i.p.) is 81%; with DOPA (20 mg/Kg i.p.), 101%; in the series with DOPA (50 mg/Kg i.p.), 177%. The LD50 at 168 h in “Acute toxicity” was approximately 180 mg/kg. The “% Protection” value is on record as 9% in series [2] (2 mg/Kg i.p.), 40% in series [2] (10 mg/Kg i.p.), 39% in series [2] (20 mg/Kg i.p.) and 66% in series [2] (50 mg/Kg i.p.).
